# Reference: patent US12570648B2, “6,7-dihydro-5H-pyrido[2,3-c]pyridazine derivatives and related compounds as Bcl-xL protein inhibitors and pro-apoptotic agents for treating cancer” (LES LABORATOIRES SERVIER, priority 2019, dated 2026)
# Tests used:
# [1] = target: His-His-(EK)-hsBCLXL(2-197)[N197C] (Homo sapiens (Human), UniProt Q07817, N197C); experiment: Fluorescence quenching assay; format: binding; settings: 1 nM Cy5-labelled protein, 400 nM PUMA peptide, 2 hours at 23° C.; KI determined from IC50
# Chain of His-His-(EK)-hsBCLXL(2-197)[N197C] (Q07817 2-197 N197C): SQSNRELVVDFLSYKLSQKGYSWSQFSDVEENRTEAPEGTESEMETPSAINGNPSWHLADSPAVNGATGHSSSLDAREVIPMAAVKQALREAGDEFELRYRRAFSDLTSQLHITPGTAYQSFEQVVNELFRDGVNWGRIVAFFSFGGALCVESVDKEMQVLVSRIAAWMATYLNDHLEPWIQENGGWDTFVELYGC
# From the text: Fluorescence quenching assay measures the change in fluorescence intensity of C-terminally Cy5-labelled BCL-xL protein, His-His-(EK)-hsBCLXL(2-197)[N197C] (UniProtKB®
# which is linked in C-terminal region to the amino acid X which corresponds to a cysteine labelled on the sulfur with Sulfo-Cyanine5 from Lumiprobe GmbH catalogue number 13380, upon binding of a C-terminally labelled peptide derived from PUMA (UniProtKB® primary accession number Q9BXH1) having an aminoacid sequence (SEQ ID:04): [[…]] which is linked in C-terminal region to the amino acid X′ where X′ is cysteine labelled on the sulfur with TQ5WS from AAT Bioquest catalogue number 2079.
# The addition of a compound which binds competitively to the same site as the peptide will result in an increase in the fluorescence intensity of the protein due to displacement of the fluorescence quencher.
# An 11-point serial dilution of each compound was prepared in DMSO, the final buffer conditions were 10 mM 4-(2-hydroxyethyl)-1-piperazineethanesulfonic acid [HEPES], 150 mM NaCl, 0.05% Tween 20, pH 7.4 and 5% DMSO. The final protein concentration in the assay was 1 nM with the peptide present at 400 nM. The experiments were incubated for 2 hours at 23° C. before fluorescence intensity was measured on a Biotek SynergyNeo plate reader (Excitation 620 nm, emission 680 nm). […] The K1 values were determined from the IC50 values according to Cer et al, Nucleic Acids Res, 2009, Jul. 1; 37 (WebServer issue): W441-W445.
# [2] = system: MOLT-4 cells; experiment: MOLT-4 cell viability using MTT assay; format: cell-based; settings: 48 h exposure
# Protocol: MTT colorimetric assay is based on the mitochondrial reduction of tetrazolium salt by living cells.
# Cells were cultured at 37° C. in a humidified atmosphere containing 5% CO2. […] At the end of incubation time, 15 μL of MTT solution (5 mg/ml) were added per well and the cells were incubated for another 4 h. […] IC50s were calculated using standard four-parametric curve fitting.
compound,measurement,setting,value
"Cc1c(Nc2nc3ccccc3s2)nnc2c1CCCN2c1nc(C(=O)O)c(CCCOc2ccc(C#CCN3C[C@@H](C)N[C@@H](C)C3)cc2F)s1 [Example 89, 2-[3-(1,3-Benzothiazol-2-ylamino)-4-methyl-6,7-dihydro-5H-pyrido[2,3-c]pyridazin-8-yl]-5-[3-[4-[3-[(3R,5S)-3,5-dimethylpiperazin-1-yl]prop-1-ynyl]-2-fluoro-phenoxy]propyl]thiazole-4-carboxylic acid]",Ki,[1],0.0028 nM
same,IC50,"[2]; Homo sapiens, MOLT-4, 48 h",0.57 nM
"Cc1c(Nc2nc3ccccc3s2)nnc2c1CCCN2c1nc(C(=O)O)c(CCCOc2ccc(C34CC(CN(C)C)(C3)C4)cc2F)s1 [Example 90, 2-[3-(1,3-Benzothiazol-2-ylamino)-4-methyl-6,7-dihydro-5H-pyrido[2,3-c]pyridazin-8-yl]-5-[3-[4-[1-[(dimethylamino)methyl]-3-bicyclo[1.1.1]pentanyl]-2-fluoro-phenoxy]propyl]thiazole-4-carboxylic acid]",Ki,[1],0.0022 nM
same,IC50,"[2]; Homo sapiens, MOLT-4, 48 h",0.46 nM
"CNC(C)(C)C#Cc1ccc(OCCCc2sc(N3CCCc4c3nnc(Nc3nc5ccccc5s3)c4C)nc2C(=O)O)c(F)c1 [Example 91, 2-[3-(1,3-Benzothiazol-2-ylamino)-4-methyl-6,7-dihydro-5H-pyrido[2,3-c]pyridazin-8-yl]-5-[3-[2-fluoro-4-[3-methyl-3-(methylamino)but-1-ynyl]phenoxy]propyl]thiazole-4-carboxylic acid]",Ki,[1],0.0057 nM
same,IC50,"[2]; Homo sapiens, MOLT-4, 48 h",0.359 nM
"Cc1c(Nc2nc3ccccc3s2)nnc2c1CCCN2c1ccc(-c2cnn(CC34CC5(C)CC(C)(C3)CC(OCCNCC[C@@H](O)CO)(C5)C4)c2C)c(C(=O)O)n1 [Example 93, 6-{3-[(1,3-benzothiazol-2-yl)amino]-4-methyl-6,7-dihydropyrido[2,3-c]pyridazin-8(5H)-yl}-3-(1-{[3-(2-{[(3R)-3,4-dihydroxybutyl]amino}ethoxy)-5,7-dimethyladamantan-1-yl]methyl}-5-methyl-1H-pyrazol-4-yl)pyridine-2-carboxylic acid]",Ki,[1],0.0024 nM
same,IC50,[2],14.2 nM
"CNCCOC12CC3(C)CC(C)(CC(Cn4ncc(-c5ccc(N6CCCc7c6nnc(Nc6nc8ccccc8s6)c7C)nc5C(=O)O)c4C)(C3)C1)C2 [Example 94, 6-{3-[(1,3-benzothiazol-2-yl)amino]-4-methyl-6,7-dihydropyrido[2,3-c]pyridazin-8(5H)-yl}-3-[1-({3,5-dimethyl-7-[2-(methylamino)ethoxy]adamantan-1-yl}methyl)-5-methyl-1H-pyrazol-4-yl]pyridine-2-carboxylic acid]",Ki,[1],0.0015 nM
same,IC50,"[2]; Homo sapiens, MOLT-4, 48 h",0.616 nM
"Cc1c(Nc2nc3ccccc3s2)nnc2c1CCCN2c1ccc(-c2cnn(CC34CC5(C)CC(C)(C3)CC(OCCN(C)C)(C5)C4)c2C)c(C(=O)O)n1 [Example 95, 6-{3-[(1,3-benzothiazol-2-yl)amino]-4-methyl-6,7-dihydropyrido[2,3-c]pyridazin-8(5H)-yl}-3-[1-({3-[2-(dimethylamino)ethoxy]-5,7-dimethyladamantan-1-yl}methyl)-5-methyl-1H-pyrazol-4-yl]pyridine-2-carboxylic acid]",Ki,[1],0.0056 nM
same,IC50,"[2]; Homo sapiens, MOLT-4, 48 h",0.205 nM
"Cc1c(Nc2nc3ccccc3s2)nnc2c1CCCN2c1ccc(-c2cnn(CC34CC5(C)CC(C)(C3)CC(OCCNCCS(=O)(=O)O)(C5)C4)c2C)c(C(=O)O)n1 [Example 96, 6-{3-[(1,3-benzothiazol-2-yl)amino]-4-methyl-6,7-dihydropyrido[2,3-c]pyridazin-8(5H)-yl}-3-{1-[(3,5-dimethyl-7-{2-[(2-sulfoethyl)amino]ethoxy}adamantan-1-yl)methyl]-5-methyl-1H-pyrazol-4-yl}pyridine-2-carboxylic acid]",Ki,[1],0.0022 nM
same,IC50,"[2]; Homo sapiens, MOLT-4, 48 h",8.27 nM
"CCNC(C)(C)C#Cc1ccc(OCCCc2sc(N3CCCc4c3nnc(Nc3nc5ccccc5s3)c4C)nc2C(=O)O)c(F)c1 [Example 102, 2-{3-[(1,3-benzothiazol-2-yl)amino]-4-methyl-6,7-dihydropyrido[2,3-c]pyridazin-8(5H)-yl}-5-(3-{4-[3-(ethylamino)-3-methylbut-1-yn-1-yl]-2-fluorophenoxy}propyl)-1,3-thiazole-4-carboxylic acid]",Ki,[1],0.0045 nM
same,IC50,"[2]; Homo sapiens, MOLT-4, 48 h",0.268 nM
"Cc1c(Nc2nc3ccccc3s2)nnc2c1CCCN2c1nc(C(=O)O)c(CCCOc2ccc(C#CCN(CC[C@H](O)CO)CC[C@H](O)CO)cc2F)s1 [Example 125, 2-{3-[(1,3-benzothiazol-2-yl)amino]-4-methyl-6,7-dihydro-5H-pyrido[2,3-c]pyridazin-8-yl}-5-{3-[4-(3-{bis[(3S)-3,4-dihydroxybutyl]amino}prop-1-yn-1-yl)-2-fluorophenoxy]propyl}-1,3-thiazole-4-carboxylic acid]",Ki,[1],0.0067 nM
same,IC50,"[2]; Homo sapiens, MOLT-4, 48 h",9.53 nM
"COC(=O)c1nc(N2CCCc3c2nnc(Nc2nc4ccccc4s2)c3C)sc1CCCOc1ccc(C#CCN)cc1F [Example 126, methyl 5-[3-[4-(3-aminoprop-1-ynyl)-2-fluoro-phenoxy]propyl]-2-[3-(1,3-benzothiazol-2-ylamino)-4-methyl-6,7-dihydro-5H-pyrido[2,3-c]pyridazin-8-yl]thiazole-4-carboxylate]",Ki,[1],0.067 nM
same,IC50,"[2]; Homo sapiens, MOLT-4, 48 h",53.3 nM
"Cc1c(Nc2nc3ccccc3s2)nnc2c1CCCN2c1ccc(-c2cnn(CC34CC5(C)CC(C)(C3)CC(OCCN3CCCC3)(C5)C4)c2C)c(C(=O)O)n1 [Example 127, 6-[3-(1,3-benzothiazol-2-ylamino)-4-methyl-6,7-dihydro-5H-pyrido[2,3-c]pyridazin-8-yl]-3-[1-[[3,5-dimethyl-7-(2-pyrrolidin-1-ylethoxy)-1-adamantyl]methyl]-5-methyl-pyrazol-4-yl]pyridine-2-carboxylic acid]",Ki,[1],0.0021 nM
same,IC50,"[2]; Homo sapiens, MOLT-4, 48 h",0.137 nM
"Cc1c(Nc2nc3ccccc3s2)nnc2c1CCCN2c1ccc(-c2cnn(CC34CC5(C)CC(C)(C3)CC(OCCN3CCN(C)CC3)(C5)C4)c2C)c(C(=O)O)n1 [Example 128, 6-[3-(1,3-benzothiazol-2-ylamino)-4-methyl-6,7-dihydro-5H-pyrido[2,3-c]pyridazin-8-yl]-3-[1-[[3,5-dimethyl-7-[2-(4-methylpiperazin-1-yl)ethoxy]-1-adamantyl]methyl]-5-methyl-pyrazol-4-yl]pyridine-2-carboxylic acid]",Ki,[1],0.0018 nM
same,IC50,"[2]; Homo sapiens, MOLT-4, 48 h",0.284 nM
"Cc1c(Nc2nc3ccccc3s2)nnc2c1CCCN2c1nc(C(=O)O)c(CCCOc2ccc(C#CCNCC[C@H](O)CO)cc2F)s1 [Example 129, 2-[3-(1,3-benzothiazol-2-ylamino)-4-methyl-6,7-dihydro-5H-pyrido[2,3-c]pyridazin-8-yl]-5-[3-[4-[3-[[(3S)-3,4-dihydroxybutyl]amino]prop-1-ynyl]-2-fluoro-phenoxy]propyl]thiazole-4-carboxylic acid]",Ki,[1],0.0047 nM
same,IC50,"[2]; Homo sapiens, MOLT-4, 48 h",3.11 nM
"Cc1c(Nc2nc3ccccc3s2)nnc2c1CCCN2c1ccc(-c2cnn(CC34CC5(C)CC(C)(C3)CC(OCCN(C)CC[C@@H](O)CO)(C5)C4)c2C)c(C(=O)O)n1 [Example 130, 6-[3-(1,3-benzothiazol-2-ylamino)-4-methyl-6,7-dihydro-5H-pyrido[2,3-c]pyridazin-8-yl]-3-[1-[[3-[2-[[(3R)-3,4-dihydroxybutyl]-methyl-amino]ethoxy]-5,7-dimethyl-1-adamantyl]methyl]-5-methyl-pyrazol-4-yl]pyridine-2-carboxylic acid]",Ki,[1],0.0023 nM
same,IC50,"[2]; Homo sapiens, MOLT-4, 48 h",1.94 nM
"Cc1c(Nc2nc3ccccc3s2)nnc2c1CCCN2c1nc(C(=O)O)c(CCCOc2ccc(C#CCNCC[C@@H](O)CO)cc2F)s1 [Example 131, 2-[3-(1,3-benzothiazol-2-ylamino)-4-methyl-6,7-dihydro-5H-pyrido[2,3-c]pyridazin-8-yl]-5-[3-[4-[3-[[(3R)-3,4-dihydroxybutyl]amino]prop-1-ynyl]-2-fluoro-phenoxy]propyl]thiazole-4-carboxylic acid]",Ki,[1],0.0045 nM
same,IC50,"[2]; Homo sapiens, MOLT-4, 48 h",0.275 nM
"Cc1c(Nc2nc3ccccc3s2)nnc2c1CCCN2c1ccc(-c2cnn(CC34CC5(C)CC(C)(C3)CC(OCCNCCCCO)(C5)C4)c2C)c(C(=O)O)n1 [Example 132, 6-[3-(1,3-benzothiazol-2-ylamino)-4-methyl-6,7-dihydro-5H-pyrido[2,3-c]pyridazin-8-yl]-3-[1-[[3-[2-(4-hydroxybutylamino)ethoxy]-5,7-dimethyl-1-adamantyl]methyl]-5-methyl-pyrazol-4-yl]pyridine-2-carboxylic acid]",Ki,[1],0.002 nM
same,IC50,"[2]; Homo sapiens, MOLT-4, 48 h",1.32 nM
"Cc1c(Nc2nc3ccccc3s2)nnc2c1CCCN2c1ccc(-c2cnn(CC34CC5(C)CC(C)(C3)CC(OCCNCC(CO)CO)(C5)C4)c2C)c(C(=O)O)n1 [Example 133, 6-[3-(1,3-benzothiazol-2-ylamino)-4-methyl-6,7-dihydro-5H-pyrido[2,3-c]pyridazin-8-yl]-3-[1-[[3-[2-[[3-hydroxy-2-(hydroxymethyl)propyl]amino]ethoxy]-5,7-dimethyl-1-adamantyl]methyl]-5-methyl-pyrazol-4-yl]pyridine-2-carboxylic acid]",Ki,[1],0.0021 nM
same,IC50,"[2]; Homo sapiens, MOLT-4, 48 h",1.68 nM
